Data taken from patent US7960427B2, “5-hydroxyindole-3-carboxylate derivatives and uses thereof” (priority 2004, dated 2011).
Converted amounts (≈) assume the structure as drawn.

Legend:
2.2.15 cells = assay: Cytotoxicity (TC50) in 2.2.15 cells; assay type: cell-based
Method: (§1) All compounds were evaluated for their anti-HBV activities, namely the ability to inhibit the replication of HBV DNA and the production of HBsAg and HBeAg in HBV-infected 2.2.15 cells.
(§2) The samples were dissolved in DMSO for appropriate concentrations, and then each was diluted 3-fold with culture medium. The 2.2.15 cells were planted into 96-well culture plates. […] The culture supernatants and 2.2.15 cells were collected respectively on the 8th plant day. The secretion concentrations of HBsAg and HBeAg in the culture supernatants were measured by RIA on SPRIA Kit for Detection of HBsAg and HBeAg (Beijing North Institute of Biological Technology), and the replication of HBV DNA was measured by dot hybridization with a^32PdCTP (FuRui Biological Technology Ltd., China).

HBV DNA = assay: In vitro anti-HBV activity: replication of HBV DNA in 2.2.15 cells (dot hybridization); assay type: cell-based, Hepatitis B virus (HBV); details: for IC50: Hepatitis B virus, read-out: DNA replication IC50; for DNA replication SI: selectivity index
Method: as §1, §2

HIV-1 protease = molecular target: T1, HIV-1 protease (Human immunodeficiency virus type 1 group M subtype B, UniProt P04585); assay: Anti-HIV-1 protease activity (fluorescence labeled substrate); assay type: biochemical; details: for inhibition ratio at 0.5 ug/ml: sample concentration 0.5 ug/ml; for inhibition ratio at 2.0 ug/ml: sample concentration 2.0 ug/ml; for inhibition ratio at 10 ug/ml: sample concentration 10 ug/ml; for inhibition ratio at 50 ug/ml: sample concentration 50 ug/ml; for inhibition ratio at 250 ug/ml: sample concentration 250 ug/ml
T1 construct: The genetically engineered target enzyme (HIV-1 protease, preserved at −85° C.)
Method: HIV-1 protease can cut the fluorescence labeled substrate under optimal condition and reaction system, so the activity of enzyme is determined by the fluorescence in the product of enzymatic reaction. The samples are added into the reaction system to observe the inhibitive effect on the enzyme.
The samples and the reference drug Indinavir ([…].) were dissolved in DMSO or redistilled water for appropriate concentration. Each was diluted 5-fold and then added into the buffer containing fluorescence labeled substrate (MP Co.). The genetically engineered target enzyme (HIV-1 protease, preserved at −85° C.) was added to the buffer and incubated under the optimal reaction condition. The fluorescence was determined by FLUO star Galaxy fluorometer.

## Nc1ccn([C@@H]2CS[C@H](CO)O2)c(=O)n1 [Example 3TC, Lamivudine, reference compound]
2.2.15 cells
  TC50: 1600 µg/mL (≈ 6980 µM)
HBV DNA
  IC50: 228 µg/mL (≈ 994 µM)

## CCOC(=O)c1c(C[S+]([O-])c2cccc(Cl)c2)n(C)c2cc(Br)c(O)c(CN3CCOCC3)c12 (centres unmarked) [Example 59, Ethyl 6-bromo-5-hydroxy-1-methyl-4-(morpholinomethyl)-2-[(3-chlorophenyl)sulfinylmethyl]-1H-indole-3-carboxylate]
2.2.15 cells
  TC50: 288.68 µg/mL (≈ 507 µM)
HBV DNA
  IC50: 26.6 µg/mL (≈ 46.7 µM)
  DNA replication SI: 10.8

## CCOC(=O)c1c(C[S+]([O-])Cc2ccc(F)cc2)n(C)c2cc(Br)c(O)c(CN3CCOCC3)c12.Cl (centres unmarked) [Example 64, Ethyl 6-bromo-5-hydroxy-1-methyl-4-(morpholinomethyl)-2-[(4-fluorobenzyl)sulfinylmethyl]-1H-indole-3-carboxylate hydrochloride]
2.2.15 cells
  TC50: 24.69 µg/mL
HBV DNA
  IC50: 0.76 µg/mL
  DNA replication SI: 32.48

## CCOC(=O)c1c(C[S+]([O-])Cc2ccoc2)n(C)c2ccc(O)c(CN3CCCCC3)c12.Cl (centres unmarked) [Example 77, Ethyl 5-hydroxy-1-methyl-4-(piperidinomethyl)-2-[(3-furylmethyl)sulfinylmethyl]-1H-indole-3-carboxylate hydrochloride]
2.2.15 cells
  TC50: 74.07 µg/mL
HBV DNA
  IC50: 18.1 µg/mL
  DNA replication SI: 4.09

## CCOC(=O)c1c(C[S+]([O-])Cc2ccc(F)cc2)n(C)c2cc(Br)c(O)c(CN(C)C)c12 (centres unmarked) [Example 80, Ethyl 6-bromo-4-[(dimethylamino)methyl]-5-hydroxy-1-methyl-2-[(4-fluorobenzyl)sulfinylmethyl]-1H-indole-3-carboxylate]
2.2.15 cells
  TC50: <0.91 µg/mL
HBV DNA
  IC50: 0.27 µg/mL (≈ 0.514 µM)
  DNA replication SI: 3.37

## CCOC(=O)c1c(C[S+]([O-])Cc2cccc(F)c2)n(C)c2cc(Br)c(O)c(CN(C)C)c12 (centres unmarked) [Example 81, Ethyl 6-bromo-4-[(dimethylamino)methyl]-5-hydroxy-1-methyl-2-[(3-fluorobenzyl)sulfinylmethyl]-1H-indole-3-carboxylate]
2.2.15 cells
  TC50: 35.61 µg/mL (≈ 67.8 µM)
HBV DNA
  IC50: 0.715 µg/mL (≈ 1.36 µM)
  DNA replication SI: 49.8

## CCOC(=O)c1c(CS(=O)(=O)Cc2ccc(F)cc2)n(C)c2cc(Br)c(O)c(CN3CCCC3)c12 [Example 84, Ethyl 6-bromo-5-hydroxy-1-methyl-4-(1-pyrrolidinylmethyl)-2-[(4-fluorobenzyl)sulfonylmethyl]-1H-indole-3-carboxylate]
2.2.15 cells
  TC50: 24.69 µg/mL (≈ 43.5 µM)
HBV DNA
  IC50: 0.58 µg/mL (≈ 1.02 µM)
  DNA replication SI: 42.57

## CCOC(=O)c1c(CS(=O)(=O)Cc2ccco2)n(C2CC2)c2ccc(O)c(CN3CCCC3)c12 [Example 85]
2.2.15 cells
  TC50: 14.26 µg/mL (≈ 29.3 µM)
HBV DNA
  IC50: 1.52 µg/mL (≈ 3.12 µM)
  DNA replication SI: 9.38

## CCOC(=O)c1c(C[S+]([O-])Cc2ccc(F)cc2)n(C)c2cc(Br)c(O)c(CN3CCCCC3)c12 (centres unmarked) [Example 86, Ethyl 6-bromo-5-hydroxy-1-methyl-4-(piperidinomethyl)-2-[(4-fluorobenzyl)sulfinylmethyl]-1H-indole-3-carboxylate]
2.2.15 cells
  TC50: 7.13 µg/mL (≈ 12.6 µM)
HBV DNA
  IC50: 0.64 µg/mL (≈ 1.13 µM)
  DNA replication SI: 11.14

## CCOC(=O)c1c(C[S+]([O-])Cc2cccc(F)c2)n(C)c2cc(Br)c(O)c(CN3CCOCC3)c12 (centres unmarked) [Example 87, Ethyl 6-bromo-5-hydroxy-1-methyl-4-(morpholinomethyl)-2-[(3-fluorobenzyl)sulfinylmethyl]-1H-indole-3-carboxylate]
2.2.15 cells
  TC50: 21.39 µg/mL (≈ 37.7 µM)
HBV DNA
  IC50: 0.53 µg/mL (≈ 0.934 µM)
  DNA replication SI: 40.35

## CCOC(=O)c1c(C[S+]([O-])c2ccc(F)cc2)n(C2CC2)c2cc(Br)c(O)c(Cn3ccnc3)c12 (centres unmarked) [Example 117, Ethyl 6-bromo-1-cyclopropyl-5-hydroxy-4-[(1-imidazoly)methyl]-2-[(4-fluorophenyl)sulfinylmethyl]-1H-indole-3-carboxylate]
2.2.15 cells
  TC50: 55.56 µg/mL (≈ 99.1 µM)
HBV DNA
  IC50: 11.4 µg/mL (≈ 20.3 µM)
  DNA replication SI: 4.87

## CCOC(=O)c1c(C[S+]([O-])c2ccc(F)c(F)c2)n(C2CC2)c2cc(Br)c(O)c(Cn3ccnc3)c12 (centres unmarked) [Example 119, Ethyl 6-bromo-1-cyclopropyl-5-hydroxy-4-[(1-imidazolyl)methyl]-2-[(3,4-difluorophenyl)sulfinylmethyl]-1H-indole-3-carboxylate]
2.2.15 cells
  TC50: 21.11 µg/mL (≈ 36.5 µM)
HBV DNA
  IC50: 3.6 µg/mL (≈ 6.22 µM)
  DNA replication SI: 5.8

## CCOC(=O)c1c(C[S+]([O-])c2ccccc2F)n(C)c2cc(Br)c(O)c(Cn3ccnc3)c12 (centres unmarked) [Example 125, Ethyl 6-bromo-5-hydroxy-4-[(1-imidazolyl)methyl]-1-methyl-2-[(2-fluorophenyl)sulfinylmethyl]-1H-indole-3-carboxylate]
2.2.15 cells
  TC50: 48.1 µg/mL (≈ 90 µM)
HBV DNA
  IC50: 8.76 µg/mL (≈ 16.4 µM)
  DNA replication SI: 5.49

## CCOC(=O)c1c(C[S+]([O-])Cc2ccco2)n(C2CC2)c2cc(Br)c(O)c(Cn3ccnc3)c12 (centres unmarked) [Example 130, Ethyl 6-bromo-1-cyclopropyl-5-hydroxy-4-[(1-imidazolyl)methyl]-2-[(2-furylmethyl)sulfinylmethyl]-1H-indole-3-carboxylate]
2.2.15 cells
  TC50: 24.69 µg/mL (≈ 45.2 µM)
HBV DNA
  IC50: 5.94 µg/mL (≈ 10.9 µM)
  DNA replication SI: 4.16

## CCOC(=O)c1c(C[S+]([O-])c2ccccc2)n(C)c2cc(Br)c(O)c(Cn3ccnc3C)c12 (centres unmarked) [Example 131, Ethyl 6-bromo-5-hydroxy-1-methyl-4-[(2-methyl-1-imidazolyl)methyl]-2-(phenylsulfinylmethyl)-1H-indole-3-carboxylate]
HIV-1 protease
  IC50: 294 µM
  inhibition ratio at 0.5 ug/ml: 4.6
  inhibition ratio at 2.0 ug/ml: 14.6
  inhibition ratio at 10 ug/ml: 7.1
  inhibition ratio at 50 ug/ml: 7.7
  inhibition ratio at 250 ug/ml: 55.1

## CCOC(=O)c1c(C[S+]([O-])c2ccc(F)c(F)c2)n(C)c2cc(Br)c(O)c(Cn3ccnc3C)c12.Cl (centres unmarked) [Example 133, Ethyl 6-bromo-5-hydroxy-1-methyl-4-[(2-methyl-1-imidazolyl)methyl]-2-[(3,4-difluorophenyl)sulfinylmethyl]-1H-indole-3-carboxylate hydrochloride]
2.2.15 cells
  TC50: 40.0 µg/mL
HBV DNA
  IC50: 6.37 µg/mL
  DNA replication SI: 6.28

## CCOC(=O)c1c(C[S+]([O-])c2cccc(C)c2)n(C)c2cc(Br)c(O)c(Cn3ccnc3C)c12 (centres unmarked) [Example 134, Ethyl 6-bromo-5-hydroxy-1-methyl-4-[(2-methyl-1-imidazolyl)methyl]-2-[(3-methylphenyl)sulfinylmethyl]-1H-indole-3-carboxylate]
2.2.15 cells
  TC50: 53.42 µg/mL (≈ 98.1 µM)
HBV DNA
  IC50: 3.8 µg/mL (≈ 6.98 µM)
  DNA replication SI: 19.1

## CCOC(=O)c1c(C[S+]([O-])c2ccccc2OC)n(C)c2cc(Br)c(O)c(Cn3ccnc3C)c12.Cl (centres unmarked) [Example 135, Ethyl 6-bromo-5-hydroxy-1-methyl-4-[(2-methyl-1-imidazolyl)methyl]-2-[(2-methoxyphenyl)sulfinylmethyl]-1H-indole-3-carboxylate hydrochloride]
2.2.15 cells
  TC50: 53.42 µg/mL
HBV DNA
  IC50: 2.4 µg/mL
  DNA replication SI: 22.3

## CCOC(=O)c1c(CS(=O)(=O)c2ccc(F)c(F)c2)n(C2CC2)c2cc(Br)c(O)c(Cn3ccnc3)c12 [Example 160, Ethyl 6-bromo-1-cyclopropyl-5-hydroxy-4-[(1-imidazolyl)methyl]-2-[(3,4-difluorophenyl)sulfonylmethyl]-1H-indole-3-carboxylate]
HIV-1 protease
  IC50: 21.3 µM
  inhibition ratio at 0.5 ug/ml: 6.1
  inhibition ratio at 2.0 ug/ml: 11.7
  inhibition ratio at 10 ug/ml: 29.1
  inhibition ratio at 50 ug/ml: 71.8
  inhibition ratio at 250 ug/ml: 97.8
